Where two headings read alike, the source gives them in different places.
What was measured:
[1] = target: T1, recombinant human Met ectodomain-Fc (Homo sapiens, UniProt P08581); assay: SPR analysis, human Met ectodomain; type: binding
T1 construct: recombinant human Met ectodomain-Fc; purchased R&D Systems
Description: Binding constants of the STaMPtides and monomeric macrocyclic peptides to their corresponding receptor ectodomains were determined by SPR analysis using Biacore T200 (Cytiva). HBS-EP + buffer (Cytiva) containing 0.1% dimethyl sulfoxide (DMSO; Sigma-Aldrich, St. Louis, MO, USA) was used as the running buffer. As ligands, recombinant human Met ectodomain-Fc and human EPOR ectodomain-Fc were immobilized to around 1000 response units on CM5 sensor chips using a human antibody capture kit (Cytiva). STaMPtides and monomeric macrocyclic peptides were injected in five concentrations at a flow rate of 30 μL/min using a single-cycle kinetics method. Binding constants were quantified by analysis of the 1:1 binding model.

Met [2] = assay: Cell-based phospho-Met ELISA (HuCCT1 cells); set-up: species or system human; conditions: phospho-Met ELISA and Erk signaling reporter assay
Description: The phosphorylation level of Met was evaluated according to a previously reported method[6],[32], with slight modifications. In brief, HuCCT-1 cells at a density of 10,000 cells/well were seeded on 96-well cell culture plates and incubated overnight in 5% CO2 at 37 °C. The cells were stimulated by rhHGF, purified HGF mimetic STaMPtides, and monomeric aMD4dY for 10 min in a 5% CO2 incubator at 37 °C. Next, cells were fixed using 4% paraformaldehyde in phosphate-buffered saline (PBS) for 20 min. Cells were washed three times with PBS and blocked with 1% BSA and 0.02% Triton X-100 in PBS for 30 min at room temperature. Cells were incubated with 1:1000 diluted phospho-Met (Tyr1234/1235) (D26) XP Rabbit mAb (Cell Signaling Technology) supplemented with 1% BSA in PBS at 4 °C overnight. After washing three times with PBS, the cells were incubated with 1:1000 diluted […] HRP-linked IgG antibody (Cell Signaling Technology) supplemented with 1% BSA in PBS at room temperature for 3 h. Cells were washed four times with PBS and incubated with 100 μL TMB substrate for 30 min. The reaction was stopped with an equal volume of 0.2 N sulfuric acid, and absorbance was quantified at 450 nm by the Molecular Imager ChemiDoc XRS System (Bio-Rad).

HuCCT1 cells = assay: Proliferation assay, HuCCT1 cells; type: cell-based, human; conditions: 5 days, 0.44 nM rhHGF or […] aMD4dY-PA22; for Relative cell growth: normalized by mock
Description: The activity of aMD4dY-PA22 against HuCCT1 cell and BM-hMSC proliferation was evaluated. HuCCT1 cells at a density of 5000 cells/well were seeded on a 24-well cell culture plate with RPMI 1640 medium supplemented with 5% FBS with or without 0.44 nM rhHGF or 6.3 nM aMD4dY-PA22. After 5 days of culture in 5% CO2 at 37 °C, the cells were detached by 0.25% trypsin/ethylenediaminetetraacetic acid (EDTA; Thermo Fisher Scientific) and counted using a Countess automated cell counter (Thermo Fisher Scientific).

Met [3] = assay: SRE reporter assay for HGF activity (Erk-SRE, HEK293 cells); type: cell-based, human; conditions: N=1; for Normalized Firefly/Renilla: Fig. S6b/c, 420 nM rhHGF
Description: The Met-activating ability of HGF mimetic STaMPtides was evaluated by SRE reporter assay using the SRE reporter vector (QIAGEN, Hilden, Germany) according to the manufacturer’s instructions. Briefly, 1 μL of the SRE reporter vector was mixed with 0.6 μL of Attractene Transfection Reagent (QIAGEN) in 50 μL of Opti-MEM medium (Thermo Fisher Scientific) to form a transfection complex. Next, HEK293 cells at a density of 40,000 cells/well were seeded on 96-well cell culture plates with the transfection complex and incubated overnight in 5% CO2 at 37 °C. The cells were starved with Opti-MEM containing 0.5% FBS, 1% non-essential amino acid solution, and penicillin-streptomycin and incubated at 37 °C for 4 h. Next, the cells were stimulated by rhHGF, purified HGF mimetic STaMPtides, monomeric aMD4dY, or decellularized supernatant overnight in a 5% CO2 incubator at 37 °C. The signal intensity was detected using the dual-luciferase reporter assay system (Promega Corporation) and a Nivo plate reader (PerkinElmer, Inc., Waltham, MA, USA). Reporter activity was calculated as (luminescence intensity of Firefly luciferase)/(luminescence intensity of Renilla luciferase) and normalized by that without a stimulant in order to determine the relative reporter activity.

T1 sequence (P08581 25-932 limits assumed): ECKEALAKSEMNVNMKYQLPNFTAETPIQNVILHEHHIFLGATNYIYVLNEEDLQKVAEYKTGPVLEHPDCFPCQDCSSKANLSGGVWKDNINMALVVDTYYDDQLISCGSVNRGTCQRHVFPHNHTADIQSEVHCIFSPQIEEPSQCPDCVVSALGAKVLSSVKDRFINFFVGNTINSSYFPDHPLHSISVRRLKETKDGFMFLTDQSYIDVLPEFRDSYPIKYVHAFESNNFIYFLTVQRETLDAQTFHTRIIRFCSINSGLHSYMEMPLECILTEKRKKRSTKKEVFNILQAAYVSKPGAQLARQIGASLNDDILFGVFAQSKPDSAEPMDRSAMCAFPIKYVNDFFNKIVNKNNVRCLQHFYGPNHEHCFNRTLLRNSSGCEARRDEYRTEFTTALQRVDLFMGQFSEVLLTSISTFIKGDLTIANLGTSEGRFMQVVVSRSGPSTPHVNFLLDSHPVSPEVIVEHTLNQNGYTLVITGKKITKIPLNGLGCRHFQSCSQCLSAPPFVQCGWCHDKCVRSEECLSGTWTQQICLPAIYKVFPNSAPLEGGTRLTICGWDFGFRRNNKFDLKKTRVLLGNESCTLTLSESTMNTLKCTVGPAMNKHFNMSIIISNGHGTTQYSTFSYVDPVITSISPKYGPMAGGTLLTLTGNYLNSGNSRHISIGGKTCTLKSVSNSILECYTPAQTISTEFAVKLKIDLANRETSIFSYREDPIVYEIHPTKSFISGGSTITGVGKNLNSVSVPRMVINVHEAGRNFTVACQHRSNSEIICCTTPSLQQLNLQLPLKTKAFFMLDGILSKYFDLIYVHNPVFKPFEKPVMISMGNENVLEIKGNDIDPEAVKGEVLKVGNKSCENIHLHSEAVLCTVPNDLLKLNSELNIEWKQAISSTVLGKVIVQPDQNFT

AET - CRQFNRRTHEVWNLDCG - AAPAAPA PAAPAAPA PAAPAA PG - CRQFNRRTHEVWNLDC (bicyclic or more) [aMD4dY-PA22, HGF mimetic STaMPtide, two aMD4dY macrocycles with a 22-amino-acid PA linker, secreted by C. glutamicum]
Kd ([1]; Biacore T200, single-cycle kinetics, 1:1 binding model, N = 3, read-out: dissociation constant (KD)): 1000 pM | kd ([1]; Table S1, Average of N 1-3): 0.00046 M⁻¹ s⁻¹ | kd ([1]; Table S1, N 1): 0.0006 M⁻¹ s⁻¹ | Kd ([1]; Table S1, N 1, read-out: KD): 1300 pM | kd ([1]; Table S1, N 2): 0.00038 M⁻¹ s⁻¹ | Kd ([1]; Table S1, N 2, read-out: KD): 900 pM | kd ([1]; Table S1, N 3): 0.00039 M⁻¹ s⁻¹ | Kd ([1]; Table S1, N 3, read-out: KD): 850 pM | Met phosphorylation and Erk-SRE signaling activation (Met [2]): at a comparable level with rhHGF | proliferation compared to the unstimulated condition (HuCCT1 cells): twofold | Relative cell growth (HuCCT1 cells; N 1): 2.429 | Relative cell growth (HuCCT1 cells; N 2): 2.429 | Relative cell growth (HuCCT1 cells; N 3): 2.571 | Normalized F/R (Met [3]; Fig. S6d, supernatant, dilution 10): 4.6947 | Normalized F/R (Met [3]; Fig. S6d, supernatant, dilution 30): 5.172 | Normalized F/R (Met [3]; Fig. S6d, supernatant, dilution 90): 5.6777 | Normalized F/R (Met [3]; Fig. S6d, supernatant, dilution 810): 3.099 | Normalized F/R (Met [3]; Fig. S6d, supernatant, dilution 2430): 1.722 | Erk-SRE reporter activity of decellularized supernatants (Met [3]; rapid screening without purification): highest activity

rhHGF: recombinant human HGF (R&D Systems)
proliferation compared to the unstimulated condition (HuCCT1 cells): twofold | Relative cell growth (HuCCT1 cells; N 1): 2.286 | Relative cell growth (HuCCT1 cells; N 2): 2.429 | Relative cell growth (HuCCT1 cells; N 3): 2.071 | Normalized F/R (Met [3]; Fig. S6a, 2.008 pM): 0.9952 | Normalized F/R (Met [3]; Fig. S6a, 10.04 pM): 0.9963 | Normalized F/R (Met [3]; Fig. S6a, 50.19 pM): 1.192 | Normalized F/R (Met [3]; Fig. S6a, 250.9 pM): 3.768 | Normalized F/R (Met [3]; Fig. S6a, 1.25471e-9 M): 8.884 | Normalized Firefly/Renilla (Met [3]; dilution 1000): 9.87 | Normalized Firefly/Renilla (Met [3]; dilution 10000): 1.622

Source: paper PMC8760323, “Single-chain tandem macrocyclic peptides as a scaffold for growth factor and cytokine mimetics” (Communications Biology, 2022)
